Source: patent publication US12138252B2, “Multikinase inhibitors of VEGF and TGF beta and uses thereof” (AIVIVA BIOPHARMA, INC., priority 2017, dated 2024)

What was measured:
[1] = tested on: TGFb1 mRNA; assay: TGFb1 mRNA expression (qPCR) in skin of mice after LL-37 challenge; type: in vivo; settings: LL37 induced, single intradermal injection 1.6 mg, FIG. 1
Procedure: (§1) In our study, mice were injected subcutaneously with 40 μL of LL-37 (3.3 mg/mL) to induce inflammatory reactions. Immediately following the LL-37 injection, axitinib, nintedanib, and lenvatinib were individually administered as a single intradermal injection (1.6 mg). LL-37 injection was repeated every 12 hours for a total of 4 injections. Endotoxin-free water and dexamethasone (3 mg/kg by intraperitoneal injection, twice), respectively, were used as negative and positive control groups.
(§2) Mice were then anaesthetized, and tissue samples of lesion sites were excised and fixed for H&E stainings and immunohistochemical analysis. Markers for inflammation (CD4 and CD8) were determined using specific antibodies. TGF beta levels are measured by mRNA expression using qPCR.

[2] = tested on: TGF beta1 mRNA; assay: TGF beta1 mRNA expression (qRT-PCR) in rabbit ear hypertrophic scar model; type: in vivo, New Zealand white rabbits; settings: 1% w/w 100 μl intradermal on days 15 and 29, Day 43, FIG. 6
Procedure: (§3) The objective of this study was to examine the effect of test compounds on wound healing and TGF beta expression after dermal injury in a rabbit ear hypertrophic scar model.
(§4) In New Zealand white rabbits, maintained under a surgical plane of anesthesia, trauma stimulation of the skin on the ventral surface of both ears is initiated on Day 1. Trauma sites are evaluated on Days 8, 15, 22, 29, 36, and 43. On days 15 and 29, each site is dosed with test compounds (e.g., 1% w/w, 100 μl) by intradermal or intralesional injections.
Animals are euthanized on Day 43, and the trauma sites are harvested and frozen for TGF beta analysis using quantitative RT-PCR (qRT-PCR) (e.g., A. K. Johnson et al., Dev. Comp. Immunol., 2006; 30(5): 473-84). TGF beta1 mRNA expression levels in treated trauma samples are compared to the expression level in the untreated trauma sample.

[3] = tested on: LL37-induced inflammation; assay: LL37-induced dermal inflammation model in mice, histopathology and CD4/CD8 immunostaining; type: in vivo; settings: intradermal LL37 induction, single intradermal injection 1.6 mg, FIG. 2
Procedure: as §1
At 48 hours after the initial LL-37 injection, the dorsal skin was photographed, and the severity of skin lesions were scored for redness and measured for areas of involvement.
as §2
The tissue samples were analyzed for inflammation characteristics. Histopathology endpoints included inflammation, and CD4+ and CD8+ T-lymphocyte immunostaining. For inflammation scores, tissues were examined histologically and scored for inflammatory cell infiltrate.

[4] = tested on: TGF-beta 1; assay: Dermal TGFb1 levels (ELISA) after linear incisional wound in minipigs; type: in vivo, Gottingen Minipigs; settings: minipig incisional wound, approximately 16 mg intradermal once, biopsies days 4, 7, 9, ELISA, FIG. 5
Description: The purpose of this study was to evaluate the topical effects of axitinib, nintedanib, sorafenib and lenvatinib when administered via intradermal injection to the dorsal skin along linear incisions of minipigs. Linear incisional wound was made to elicit inflammatory and wound healing process in the skin. After dosing, animals were observed postdose for 9 days to assess the levels of TGFb1 expressions in the skin.
Three male Gottingen Minipigs® dosed once via intradermal injection along the edges of each of the linear incision wound sites for each animal (wounds on the dorsum, perpendicular to the spine, approximately 3 cm in length and 3 cm distance from the spine). Each incisional wound received approximately 16 mg of the test compound intradermally once along both sides of the linear wound.
On days of 4, 7, and 9 post-dosing, one 4 mm dermal punch biopsy was collected for each incisional wound and processed for TGF-beta 1 analysis with ELISA, using a commercial kit (e.g., the kit from Thermo Fisher or other vendors).

[5] = tested on: rabbit ear wound; assay: Histopathology of rabbit ear wound (neovascularization, fibrosis, re-epithelialization); type: in vivo, New Zealand white rabbits; set-up: key to Total Score: aggregated total of severity grades for microscopic findings; key to Neovascularization / Re-epithelialization: five-step severity grade (minimal, mild, moderate, marked, severe); settings: intradermal 1%; for angiogenesis / neovascularization compared with untreated wounds (words) / fibrosis compared with untreated wounds (words): histopathology; for scar formation compared with control sites: overall; for Total Score / Fibrosis/Collagen / Neovascularization / Re-epithelialization: treated mean, Day 43; for Total Score: aggregation of microscopic findings; for Fibrosis/Collagen / Neovascularization / Re-epithelialization: histology severity grade; for average total score of test wounds lower than untreated wounds by: difference to untreated control
Procedure: as §3, §4
At necropsy, each treatment site was harvested and preserved for hematoxylin and […] and Mason's trichrome stainings. Each lesion was examined histologically and graded for neovascularization, fibrosis and re-epithelialization using a five-step/severity grading system (minimal, mild, moderate, marked, and severe). The average total score is an aggregation of these microscopic findings relating to an inflammatory response.

Compound	TGFb1 mRNA expression relative to LL37 alone (without treatment) ([1]; 48 hours) [%]	TGFb-1 mRNA expression among all treatment groups [1]	mean folds of TGF beta mRNA expression vs untreated wound sample [2]	inflammation score (inflammatory cell infiltrate) [3]	suppression of TGF beta 1 expression in skin [4]	angiogenesis / neovascularization compared with untreated wounds (words) [5]	fibrosis compared with untreated wounds (words) [5]	angiogenesis / neovascularization compared with untreated wounds (words) ([5]; listed as Sorafenib)	scar formation compared with control sites [5]	Total Score [5]	Fibrosis/Collagen [5]	Neovascularization [5]	Re-epithelialization [5]	average total score of test wounds lower than untreated wounds by [5]	angiogenesis / neovascularization compared with untreated wounds (words) ([5]; listed as Nintedanib)	fibrosis compared with untreated wounds (words) ([5]; listed as Nintedanib)
COc1cc2nccc(Oc3ccc(NC(=O)NC4CC4)c(Cl)c3)c2cc1C(N)=O [lenvatinib]	79	lowest TGFb-1 mRNA expression	lower than the expression level in the untreated wound sample	prominent reductions	very effective	–	–	–	–	–	–	–	–	–	–	–
CNC(=O)c1cc(Oc2ccc(NC(=O)Nc3ccc(Cl)c(C(F)(F)F)c3)cc2)ccn1 [sorafenib]	–	–	lower than the expression level in the untreated wound sample	–	not as effective	do not show any reduction in angiogenesis	similar, or increased fibrosis	slightly increased neovascularization	does not appear to have reduced scar formation	5.8	2.5	3	0.3	–	–	–
COC(=O)c1ccc2c(c1)NC(=O)/C2=C(\Nc1ccc(N(C)C(=O)CN2CCN(C)CC2)cc1)c1ccccc1 [nintedanib]	–	–	lower than the expression level in the untreated wound sample	prominent reductions	very effective	decreased angiogenesis	decreased angiogenesis and fibrosis	–	less scar formation	4.5	3	1	0.5	1.5	much less neovascularization	about the same fibrosis
CNC(=O)c1ccccc1Sc1ccc2c(/C=C/c3ccccn3)n[nH]c2c1 [axitinib]	–	–	–	–	–	–	–	–	–	4.6	3.3	1	0.3	1.4	–	–
